Test results taken from patent US5093519A, “Vitamin D derivatives: therapeutic applications and applications to assays of metabolities of vitamin D” (priority 1988, dated 1992).
Read-outs that look alike come from different tables or passages of the source. Blank lines part the entries; values can stand above or below the compound they belong to.

Columns and labels:
HL 60 cells = experiment: Differentiation of HL 60 leukemic cells in vitro; assay type: cell-based; conditions: in words
Excerpt: This is, in effect, directly confirmed in various biological tests (induction of the differentiation HL 60 leukemic cells, inhibition of lymphocyte proliferation, modification of the proliferation of cancer cells, calciotropic effect, and the like). FIGS. (3-4) illustrate the effect of different analogs on the differentiation of HL 60 leukemic cells.

human lymphocytes = experiment: Inhibition of proliferation of PHA-stimulated human lymphocytes; assay type: cell-based; conditions: for inhibition of lymphocyte proliferation (in words): compound alone; for antagonist effect in lymphocyte proliferation test: 10^-10 M derivative added to 1,25-(OH)2 -vitamin D3; for inhibition of lymphocyte proliferation, less active than 1,25-(OH)2 -vitamin D3: fold less active than 1,25-(OH)2 -vitamin D3
Excerpt: For example, if the proliferative response of human lymphocytes stimulated with PHA is 100 in the absence of vitamin D3, it is reduced to 66.5 in the presence of 10^-11 M 1,25-(OH)2 -vitamin D3 (Table 1). In the same test, the addition of 11-(2-hydroxyethyl)-1,25-(OH)2 -D3 induces no inhibition at 10^-10 M (102.6).
(§1) Bibliographic References 21, 22 and 23 served as references for the methodology of the tests of binding to DBP and to the receptor, and of the test of inhibition of lymphocyte proliferation.

[1] = tested on: vitamin D-binding protein (DBP); conditions: background knowledge, cited from earlier work
[2] = tested on: intracellular receptor of vitamin D; conditions: background knowledge; cited from earlier work
[3] = background knowledge, cited from earlier work
[4] = target: T1, intracellular receptor for vitamin D (Rattus norvegicus, UniProt P13053); experiment: Binding to the intracellular receptor for vitamin D, displacement of [^3 H]-1,25-(OH)2 -vitamin D3 (rat duodenum); conditions: in words
T1 construct: from tissue; host or cells: rat duodenum
T1 sequence (P13053 1-423): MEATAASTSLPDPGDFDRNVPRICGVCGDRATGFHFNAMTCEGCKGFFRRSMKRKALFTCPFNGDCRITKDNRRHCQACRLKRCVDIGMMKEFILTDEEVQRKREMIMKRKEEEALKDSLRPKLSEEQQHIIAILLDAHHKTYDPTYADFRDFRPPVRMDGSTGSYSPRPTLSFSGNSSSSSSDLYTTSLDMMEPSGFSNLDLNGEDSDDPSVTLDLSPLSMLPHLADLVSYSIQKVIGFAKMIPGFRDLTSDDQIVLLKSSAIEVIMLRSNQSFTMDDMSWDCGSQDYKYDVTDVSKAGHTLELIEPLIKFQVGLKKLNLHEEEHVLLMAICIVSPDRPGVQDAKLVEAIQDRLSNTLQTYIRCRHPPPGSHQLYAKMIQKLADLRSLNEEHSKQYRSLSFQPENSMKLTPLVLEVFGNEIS
Excerpt: Binding of 1,25-(OH)2 -vitamin D and two C^11 -derivatives to the intracellular receptor for vitamin D, measured by displacement of the binding of the tracer ]^3 H]-1,25-(OH)2 -vitamin D3.
The affinity, however, is approximately 100- to 200-fold lower than that of 1,25-(OH)2 -vitamin D3. This experiment is reproducible with receptors of different origins (rat duodenum in the example illustrated, but also calf thymus, human lymphocytes, and the like).
as §1

purified human DBP = target: T2, purified human DBP (Homo sapiens, UniProt P02774); experiment: Binding to purified human DBP, displacement of [^3 H]-25-OH-vitamin D3; conditions: in words; FIG. 1
T2 construct: displacement of [3H]-25-OH-vitamin D3
T2 sequence (P02774 17-474): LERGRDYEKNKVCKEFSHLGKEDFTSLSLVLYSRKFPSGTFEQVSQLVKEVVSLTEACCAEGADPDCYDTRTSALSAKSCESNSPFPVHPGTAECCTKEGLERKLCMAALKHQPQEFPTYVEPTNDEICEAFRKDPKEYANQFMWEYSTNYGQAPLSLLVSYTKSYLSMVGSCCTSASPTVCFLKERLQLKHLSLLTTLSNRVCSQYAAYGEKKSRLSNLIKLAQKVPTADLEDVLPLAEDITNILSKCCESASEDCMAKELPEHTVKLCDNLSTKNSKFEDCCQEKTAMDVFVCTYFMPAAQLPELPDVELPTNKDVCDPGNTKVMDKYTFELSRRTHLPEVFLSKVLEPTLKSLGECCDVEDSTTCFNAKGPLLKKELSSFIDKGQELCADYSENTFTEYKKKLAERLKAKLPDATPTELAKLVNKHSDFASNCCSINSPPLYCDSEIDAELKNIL
Excerpt: Binding to purified human DBP of 25-OH-vitamin D3, 1,25-(OH)2 -vitamin D3 and some C^11 -derivatives of these molecules, measured by displacement of the binding of the tracer [^3 H]-25-OH-vitamin D3.
This affinity is not modified with an 11-hydroxyethyl derivative. […] This property has been turned to good account for obtaining analogs which can be iodinated via their branch at C^11, and these derivatives have been used successfully, for example, for developing the first specific assay for 25-OH-vitamin D3 using an iodinated tracer.
as §1

SMILES: C=C1/C(=C\C=C2/CCC[C@]3(C)[C@@H]([C@H](C)CCCC(C)(C)O)CC[C@@H]23)C[C@@H](O)C[C@@H]1O [1,25-(OH)2-vitamin D3]
biological activity in a test of differentiation of HL 60 cells (HL 60 cells; FIGS. 3-4): active
lymphocyte proliferation (human lymphocytes; 1,25-(OH)2 -vitamin D3 10^-11 M alone, 100% in absence of vitamin D3, 1e-05 µM): 66.5%
lymphocyte proliferation (human lymphocytes; 1,25-(OH)2 -vitamin D3 10^-12 M alone, 100% in absence of vitamin D3, 1e-06 µM): 93.8%
inhibition of lymphocyte proliferation (in words) (human lymphocytes): marked inhibition of proliferation
affinity for DBP [1]: lower affinity
affinity for DBP ([1]; listed as 1α,25-(OH)2 -vitamin D): low affinity
affinity for the intracellular receptor of vitamin D [2]: high affinity
half-life [3]: short half-life
therapeutic index ([3]; listed as 1,25-(OH)2)-vitamin D): very narrow therapeutic index
therapeutic index ([3]; listed as 1,25-(OH)2 -Vitamin D): narrow

binding to the vitamin D3 receptor ([4]; FIG. 2): bind the vitamin D3 receptor
SMILES: C=C1/C(=C\C=C2/C[C@H](CCOC(=O)CCC(=O)O)C[C@]3(C)[C@@H]([C@H](C)CCCC(C)(C)O)CC[C@@H]23)C[C@@H](O)C[C@@H]1O [11β-(2-hemisuccinoyloxyethyl)]

SMILES: C=C1CC[C@H](O)C/C1=C/C=C1\CCC[C@]2(C)[C@@H]([C@H](C)CCCC(C)(C)O)CC[C@@H]12 [25-OH-vitamin D3]
biological activity in a test of differentiation of HL 60 cells (HL 60 cells; FIGS. 3-4): of low activity
affinity for DBP [1]: high affinity
affinity for the intracellular receptor of vitamin D [2]: low affinity

SMILES: C=C1/C(=C\C=C2/C[C@H](C)C[C@]3(C)[C@@H]([C@H](C)CCCC(C)(C)O)CC[C@@H]23)C[C@@H](O)C[C@@H]1O [compound 47, 1α,25-(OH)2-11α-methylvitamin D3]
binding to the vitamin D3 receptor ([4]; FIG. 2): affinity comparable to unsubstituted 1,25-(OH)2 -vitamin D3
biological activity in a test of differentiation of HL 60 cells (HL 60 cells; FIGS. 3-4, listed as 11α-methyl-1,25-(OH)2 -vitamin D3): strong activity, approaching that of 1,25-(OH)2 -vitamin D3
biological activity in a test of differentiation of HL 60 cells (HL 60 cells; FIGS. 3-4, listed as methyl derivative): very active

SMILES: C=C1/C(=C\C=C2/C[C@H](c3ccccc3)C[C@]3(C)[C@@H]([C@H](C)CCCC(C)(C)O)CC[C@@H]23)C[C@@H](O)C[C@@H]1O [compound 48, 1α,25-(OH)2-11α-phenylvitamin D3]
binding to the vitamin D3 receptor ([4]; FIG. 2): binds the receptor better than the 11α-hydroxyethyl derivatives
biological activity in a test of differentiation of HL 60 cells (HL 60 cells; FIGS. 3-4, listed as 11α-phenyl-1,25-(OH)2 -vitamin D3): active
biological activity in a test of differentiation of HL 60 cells (HL 60 cells; FIGS. 3-4, listed as phenyl derivative): moderately active

binding to purified human DBP (purified human DBP): not modified
binding to the vitamin D3 receptor ([4]; FIG. 2, listed as 11α-(hydroxyethyl)): bind the vitamin D3 receptor
binding to the vitamin D3 receptor ([4]; FIG. 2, listed as 11α-(hydroxyethyl)-1,25-(OH)2 -vitamin D3): comparable
SMILES: C=C1/C(=C\C=C2/C[C@H](CCO)C[C@]3(C)[C@@H]([C@H](C)CCCC(C)(C)O)CC[C@@H]23)C[C@@H](O)C[C@@H]1O [compound 49, 11α-(2-OH-ethyl)-1,25-(OH)2-vitamin D3]
biological activity in a test of differentiation of HL 60 cells (HL 60 cells; FIGS. 3-4): of low activity
antagonist effect in lymphocyte proliferation test (human lymphocytes; listed as 11-(2-hydroxyethyl)-1,25-(OH)2 -D3): antagonizes its inhibitory effect
antagonist effect in lymphocyte proliferation test (human lymphocytes; listed as 11-(OH-ethyl) derivative): behaves as a partial antagonist of vitamin D3
lymphocyte proliferation (human lymphocytes; 11-(2-OH-Ethyl) derivative 10^-10 M + 1,25-(OH)2 -vitamin D3 10^-11 M, 0.0001 µM): 91.8%
lymphocyte proliferation (human lymphocytes; 11-(2-OH-Ethyl) derivative 10^-10 M + 1,25-(OH)2 -vitamin D3 10^-12 M, 0.0001 µM): 98.5%
activity at 0.0001 µM (human lymphocytes; Homo sapiens, Lymphocyte, 10^-10 M alone, response is 100 in the absence of vitamin D3, read-out: proliferative response of lymphocytes): 103%
inhibition of lymphocyte proliferation (in words) (human lymphocytes): no inhibition
inhibition of lymphocyte proliferation, less active than 1,25-(OH)2 -vitamin D3 (human lymphocytes): 100 fold

binding to the vitamin D3 receptor ([4]; FIG. 2, listed as 11α-(2-hemisuccinoyloxyethyl vitamin D3)): comparable
SMILES: C=C1/C(=C\C=C2/C[C@H](CCOC(=O)CCC(=O)O)C[C@]3(C)[C@@H]([C@H](C)CCCC(C)(C)O)CC[C@@H]23)C[C@@H](O)C[C@@H]1O [compound 50, 11α-(2-HS-ethyl)-1,25-(OH)2-vitamin D3]
inhibition of lymphocyte proliferation, less active than 1,25-(OH)2 -vitamin D3 (human lymphocytes): approximately 1000 fold

SMILES: C=C1CCC(O)CC1=CC=C1CC(CCO)CC2(C)C1CCC2C(C)CCCC(C)(C)O (centres unmarked) [compound 56, 11-(2-hydroxyethyl)-25-OH-vitamin D3]
biological activity in a test of differentiation of HL 60 cells (HL 60 cells; FIGS. 3-4): of low activity

SMILES: C=C1CC[C@H](O)C/C1=C/C=C1\C[C@H](CCOC(=O)CCC(=O)O)C[C@]2(C)[C@@H]([C@H](C)CCCC(C)(C)O)CC[C@@H]12 [compound 57, 11-(2-HS-ethyl)-25-OH-vitamin D3]
binding to purified human DBP (purified human DBP): does not necessarily modify this affinity substantially
